Earlier results, collected in patent EP4729553A1, “BLOCK POLYMER, AND COLORING MATERIAL DISPERSION AND INK COMPOSITION USING SAME” (Mikuni Shikiso Kabushiki Kaisha, priority 2023, dated 2024).

Settings: monomer, trade product data

For “ethoxylated o-phenylphenol acrylate [A-LEN10]”, the LogP is listed as 3.98.
